{
  "source": "ChEMBL document CHEMBL4033729",
  "about": "“Penicillospirone from a marine isolate of Penicillium sp. (SF-5292) with anti-inflammatory activity” (Bioorg Med Chem Lett, 2017)",
  "key": {"Mus musculus [1]": {"species_on_record": "Mus musculus", "experiment": "Inhibition of LPS-stimulated NFkappaB DNA binding activity in mouse RAW264.7 cells assessed pre-incubated for 3 hrs before LPS-stimulation for 60 mins by ELISA", "assay_type": "cell-based"}, "RAW264.7 [2]": {"tested_on": "RAW264.7", "experiment": "Anti-inflammatory activity in mouse RAW264.7 cells assessed as reduction in LPS-induced nitric oxide production pre-incubated for 3 hrs before LPS-stimulation for 24 hrs by Griess reagent based ELISA", "assay_type": "functional, cell-based"}, "BV-2 [3]": {"tested_on": "BV-2", "experiment": "Anti-inflammatory activity in mouse BV2 cells assessed as reduction in LPS-induced nitric oxide production pre-incubated for 3 hrs before LPS-stimulation for 24 hrs by Griess reagent based ELISA", "assay_type": "functional, cell-based"}, "RAW264.7 [4]": {"tested_on": "RAW264.7", "experiment": "Anti-inflammatory activity in mouse RAW264.7 cells assessed as reduction in LPS-induced PGE2 production pre-incubated for 3 hrs before LPS-stimulation for 24 hrs", "assay_type": "functional, cell-based"}, "BV-2 [5]": {"tested_on": "BV-2", "experiment": "Anti-inflammatory activity in mouse BV2 cells assessed as reduction in LPS-induced PGE2 production pre-incubated for 3 hrs before LPS-stimulation for 24 hrs", "assay_type": "functional, cell-based"}, "RAW264.7 [6]": {"tested_on": "RAW264.7", "experiment": "Cytotoxicity in mouse RAW264.7 cells at 10 to 80 uM by MTT assay", "assay_type": "cell-based", "conditions": "raw264.7, 80 µM"}, "BV-2 [7]": {"tested_on": "BV-2", "experiment": "Cytotoxicity in mouse BV2 cells at 10 to 80 uM by MTT assay", "assay_type": "cell-based", "conditions": "bv-2, 80 µM"}, "RAW264.7 [8]": {"tested_on": "RAW264.7", "experiment": "Inhibition of LPS-stimulated iNOS protein expression in mouse RAW264.7 cells pre-incubated for 3 hrs before LPS-stimulation for 24 hrs by Western blot method", "assay_type": "functional, cell-based"}, "RAW264.7 [9]": {"tested_on": "RAW264.7", "experiment": "Inhibition of LPS-stimulated COX2 protein expression in mouse RAW264.7 cells pre-incubated for 3 hrs before LPS-stimulation for 24 hrs by Western blot method", "assay_type": "functional, cell-based"}, "BV-2 [10]": {"tested_on": "BV-2", "experiment": "Inhibition of LPS-stimulated iNOS protein expression in mouse BV2 cells pre-incubated for 3 hrs before LPS-stimulation for 24 hrs by Western blot method", "assay_type": "functional, cell-based"}, "BV-2 [11]": {"tested_on": "BV-2", "experiment": "Inhibition of LPS-stimulated COX2 protein expression in mouse BV2 cells pre-incubated for 3 hrs before LPS-stimulation for 24 hrs by Western blot method", "assay_type": "functional, cell-based"}, "Mus musculus [12]": {"species_on_record": "Mus musculus", "experiment": "Inhibition of LPS-stimulated NFkappaB signalling activation in mouse RAW264.7 cells assessed as reduction in IkappaB phosphorylation pre-incubated for 3 hrs before LPS-stimulation for 60 mins by Western blot method", "assay_type": "cell-based"}, "Mus musculus [13]": {"species_on_record": "Mus musculus", "experiment": "Inhibition of LPS-stimulated NFkappaB signalling activation in mouse BV2 cells assessed as reduction in IkappaB phosphorylation pre-incubated for 3 hrs before LPS-stimulation for 60 mins by Western blot method", "assay_type": "cell-based"}, "Mus musculus [14]": {"species_on_record": "Mus musculus", "experiment": "Inhibition of LPS-stimulated NFkappaB p65/p50 nuclear translocation in mouse RAW264.7 cells assessed as increase in cytosolic p65/p50 protein level at 10 to 40 uM pre-incubated for 3 hrs before LPS-stimulation for 60 mins by Western blot method", "assay_type": "cell-based"}, "Mus musculus [15]": {"species_on_record": "Mus musculus", "experiment": "Inhibition of LPS-stimulated NFkappaB p65/p50 nuclear translocation in mouse BV2 cells assessed as increase in cytosolic p65/p50 protein level at 10 to 40 uM pre-incubated for 3 hrs before LPS-stimulation for 60 mins by Western blot method", "assay_type": "cell-based"}, "Mus musculus [16]": {"species_on_record": "Mus musculus", "experiment": "Inhibition of LPS-stimulated NFkappaB DNA binding activity in mouse BV2 cells assessed pre-incubated for 3 hrs before LPS-stimulation for 60 mins by ELISA", "assay_type": "cell-based"}, "RAW264.7 [17]": {"tested_on": "RAW264.7", "experiment": "Anti-inflammatory activity in mouse RAW264.7 cells assessed as reduction in LPS-induced TNFalpha mRNA expression pre-incubated for 3 hrs before LPS-stimulation for 12 hrs by RT-qPCR method", "assay_type": "functional, cell-based"}, "RAW264.7 [18]": {"tested_on": "RAW264.7", "experiment": "Anti-inflammatory activity in mouse RAW264.7 cells assessed as reduction in LPS-induced IL-1beta mRNA expression pre-incubated for 3 hrs before LPS-stimulation for 12 hrs by RT-qPCR method", "assay_type": "functional, cell-based"}, "RAW264.7 [19]": {"tested_on": "RAW264.7", "experiment": "Anti-inflammatory activity in mouse RAW264.7 cells assessed as reduction in LPS-induced IL6 mRNA expression pre-incubated for 3 hrs before LPS-stimulation for 12 hrs by RT-qPCR method", "assay_type": "functional, cell-based"}, "RAW264.7 [20]": {"tested_on": "RAW264.7", "experiment": "Anti-inflammatory activity in mouse RAW264.7 cells assessed as reduction in LPS-induced IL12 mRNA expression pre-incubated for 3 hrs before LPS-stimulation for 12 hrs by RT-qPCR method", "assay_type": "functional, cell-based"}, "BV-2 [21]": {"tested_on": "BV-2", "experiment": "Anti-inflammatory activity in mouse BV2 cells assessed as reduction in LPS-induced TNFalpha mRNA expression pre-incubated for 3 hrs before LPS-stimulation for 12 hrs by RT-qPCR method", "assay_type": "functional, cell-based"}, "BV-2 [22]": {"tested_on": "BV-2", "experiment": "Anti-inflammatory activity in mouse BV2 cells assessed as reduction in LPS-induced IL-1beta mRNA expression pre-incubated for 3 hrs before LPS-stimulation for 12 hrs by RT-qPCR method", "assay_type": "functional, cell-based"}, "BV-2 [23]": {"tested_on": "BV-2", "experiment": "Anti-inflammatory activity in mouse BV2 cells assessed as reduction in LPS-induced IL6 mRNA expression pre-incubated for 3 hrs before LPS-stimulation for 12 hrs by RT-qPCR method", "assay_type": "functional, cell-based"}, "BV-2 [24]": {"tested_on": "BV-2", "experiment": "Anti-inflammatory activity in mouse BV2 cells assessed as reduction in LPS-induced IL12 mRNA expression pre-incubated for 3 hrs before LPS-stimulation for 12 hrs by RT-qPCR method", "assay_type": "functional, cell-based"}},
  "note": "Active and inactive are the calls of the source. The calls are words filed in the database; no cut-off is given here.",
  "data": [
    {"molecule": "C/C=C/[C@@H]1C=CC(=O)[C@H](O)[C@]12C(=O)O[C@H](C)[C@@H]2O", "values": [
      {"measurement": "inhibition", "setting": "Mus musculus [1]", "result": "Dose-dependent effect"},
      {"measurement": "IC50", "setting": "RAW264.7 [2]", "result": 23.5, "unit": "µM"},
      {"measurement": "inhibition", "setting": "RAW264.7 [2]", "result": "Dose-dependent effect"},
      {"measurement": "IC50", "setting": "BV-2 [3]", "result": 21.9, "unit": "µM"},
      {"measurement": "inhibition", "setting": "BV-2 [3]", "result": "Dose-dependent effect"},
      {"measurement": "IC50", "setting": "RAW264.7 [4]", "result": 22.8, "unit": "µM"},
      {"measurement": "IC50", "setting": "BV-2 [5]", "result": 27.6, "unit": "µM"},
      {"measurement": "Activity", "setting": "RAW264.7 [6]", "result": "Non-Toxic"},
      {"measurement": "Activity", "setting": "BV-2 [7]", "result": "Non-Toxic"},
      {"measurement": "inhibition", "setting": "RAW264.7 [8]", "result": "Dose-dependent effect"},
      {"measurement": "inhibition", "setting": "RAW264.7 [9]", "result": "Dose-dependent effect"},
      {"measurement": "inhibition", "setting": "BV-2 [10]", "result": "Dose-dependent effect"},
      {"measurement": "inhibition", "setting": "BV-2 [11]", "result": "Dose-dependent effect"},
      {"measurement": "inhibition", "setting": "Mus musculus [12]", "result": "Dose-dependent effect"},
      {"measurement": "inhibition", "setting": "Mus musculus [13]", "result": "Dose-dependent effect"},
      {"measurement": "inhibition", "setting": "Mus musculus [14]", "result": "Active"},
      {"measurement": "inhibition", "setting": "Mus musculus [15]", "result": "Active"},
      {"measurement": "inhibition", "setting": "Mus musculus [16]", "result": "Dose-dependent effect"},
      {"measurement": "inhibition", "setting": "RAW264.7 [17]", "result": "Dose-dependent effect"},
      {"measurement": "inhibition", "setting": "RAW264.7 [18]", "result": "Dose-dependent effect"},
      {"measurement": "inhibition", "setting": "RAW264.7 [19]", "result": "Dose-dependent effect"},
      {"measurement": "inhibition", "setting": "RAW264.7 [20]", "result": "Dose-dependent effect"},
      {"measurement": "inhibition", "setting": "BV-2 [21]", "result": "Dose-dependent effect"},
      {"measurement": "inhibition", "setting": "BV-2 [22]", "result": "Dose-dependent effect"},
      {"measurement": "inhibition", "setting": "BV-2 [23]", "result": "Dose-dependent effect"},
      {"measurement": "inhibition", "setting": "BV-2 [24]", "result": "Dose-dependent effect"}
    ]}
  ]
}
